Laboratory results taken from paper PMC10398856 (ACS Omega, 2023).

Columns and labels:
[1] = test system: human coronavirus 229E (HCoV-229E); assay: microbe, parasite or virus in culture; format: cell-based; details: for IC50: Human coronavirus 229E, A549, read-out: IC50, antiviral effect on HCoV-229E
[2] = test system: SARS-CoV-2; assay: microbe, parasite or virus in culture; format: cell-based; details: for EC50: Severe acute respiratory syndrome coronavirus 2, 48 h, read-out: EC50, antiviral effect on SARS-CoV-2
[3] = 1 μM, 30 min, 37 °C
[4] = rat, in vivo
[5] = in vivo; details: female, Wistar Albino, rat, po
[6] = in vivo; details: male, Wistar Albino, rat, po, 10 mg/kg

Row | SMILES | IC50 [1] [µM] | selectivity index, SARS-CoV-2 [2] | EC50 [2] [µM] | also measured
1 | O=c1cc(OCCOc2ccnc(SCc3ccc(Cl)cc3)n2)c2ccccc2o1 [5i, 4-(2-((2-((4-Chlorobenzyl)thio)pyrimidin-4-yl)oxy)ethoxy)-2H-chromen-2-one] | > 25 | <1 | > 50 | –
2 | O=c1cc(OCCOc2ccnc(SCc3ccc(F)cc3)n2)c2cc(F)ccc2o1 [5c, 6-Fluoro-4-(2-((2-((4-fluorobenzyl)thio)pyrimidin-4-yl)oxy)ethoxy)-2H-chromen-2-one] | > 25 | – | > 50 | –
3 | Cc1cccc(CSc2nccc(OCCOc3cc(=O)oc4ccc(F)cc34)n2)c1 [5g, 6-Fluoro-4-(2-((2-((3-methylbenzyl)thio)pyrimidin-4-yl)oxy)ethoxy)-2H-chromen-2-one] | > 25 | – | > 50 | –
4 | O=c1cc(OCCCOc2ccnc(SCc3ccc(F)cc3)n2)c2ccccc2o1 [5b, 4-(3-((2-((4-Fluorobenzyl)thio)pyrimidin-4-yl)oxy)propoxy)-2H-chromen-2-one] | > 25 | – | > 50 | –
5 | Cc1cccc(CSc2nccc(OCCCOc3cc(=O)oc4ccc(F)cc34)n2)c1 [5h, 6-Fluoro-4-(3-((2-((3-methylbenzyl)thio)pyrimidin-4-yl)oxy)propoxy)-2H-chromen-2-one] | > 25 | – | > 50 | –
6 | Cc1cccc(CSc2nccc(OCCCOc3cc(=O)oc4ccccc34)n2)c1 [5f, 4-(3-((2-((3-Methylbenzyl)thio)pyrimidin-4-yl)oxy)propoxy)-2H-chromen-2-one] | > 25 | <1 | > 50 | –
7 | O=c1cc(OCCOc2ccnc(SCc3ccc(F)cc3)n2)c2ccccc2o1 [5a, 4-(2-((2-((4-Fluorobenzyl)thio)pyrimidin-4-yl)oxy)ethoxy)-2H-chromen-2-one] | > 25 | – | > 50 | –
8 | Cc1cccc(CSc2nccc(OCCOc3cc(=O)oc4ccccc34)n2)c1 [5e, 4-(2-((2-((3-Methylbenzyl)thio)pyrimidin-4-yl)oxy)ethoxy)-2H-chromen-2-one] | 24.4 | 11.4 | 6.59 ± 0.28 | metabolic stability against rat liver microsomes [3]: showed metabolic stability; selectivity index, HCoV-229E [1]: 3.06; metabolic stability against human liver microsomes (1 μM, 30 min, 37 °C): showed metabolic stability; compound found to be stable in human liver microsomes (human): > 50%
9 | O=c1cc(OCCCOc2ccnc(SCc3ccc(F)cc3)n2)c2cc(F)ccc2o1 [5d, 6-Fluoro-4-(3-((2-((4-fluorobenzyl)thio)pyrimidin-4-yl)oxy)propoxy)-2H-chromen-2-one] | 15.4 | – | 14.3 ± 0.14 | GHS classification category ([4]; female, Wistar Albino): Category-4; clinical signs of toxicity and gross pathological changes ([4]; po, 300 mg/kg): no signs of toxicity; LD50 [5]: 500 to 1000 mg/kg; Cmax [6]: 220 ng/mL; half-life [6]: 73.3 h
